Measured values published in patent US20240018132A1, “5-HYDROXY-1,4-NAPHTHALENEDIONE FOR USE IN THE TREATMENT OF CANCER” (GODAVARI BIOREFINERIES LIMITED, priority 2020, published 2024).
Blank lines part the entries; values can stand above or below the compound they belong to.

Tests used:
MDAMB231 [1] = assay: Soft agar colony-formation assay, breast cancer; assay type: cell-based; details: for anticancer activity in comparison with cisplatin, soft agar, breast cancer cell line: FIG. 51, MDAMB231; for IC50: Homo sapiens, MDA-MB-231, 168 h, Soft Agar Assay, 1 week, Alamar Blue
Protocol: (§1) The Soft Agar Colony-formation Assay is an anchorage-independent growth assay in soft agar, which is one of the most stringent assays for detecting malignant transformation of cells. For this assay, malignant cells are cultured with appropriate controls in soft agar medium for 1-2 weeks. Following this incubation period, formed colonies can either be analyzed morphologically using cell stain and quantifying the number of colonies formed.
(§2) Briefly, for Soft Agar Assay a mixture of 50 ul of 2× medium (taken appropriately as per cell line) and 50 ul of 1.2% Bacto Agar were plated on to each well of 96 well micro titer assay plate. 10 ul of cells (of specific plating efficiency pre standardized for respective cell line) were mixed with 20 ul of 2× medium and 30 ul of 0.8% of Bacto Agar and 1.6 ul of drug (of appropriate concentration) in a vial and transferred to the solidified pre layers of the assay plates. The cells were then allowed to grow and form colonies at 37° C. and 5% CO2 for 1 week. An intermittent feeding with 50 ul of appropriate 2× medium was performed after 3 days of experimental set up. 16 ul of Alamar Blue (1.5 mg/ml) was then added to all the wells to quantify the developed colonies. The plates were incubated for 24 hrs at 37° C. Absorbance was then measured at 630 nm. XY graph of log Percent viability was then plotted against log drug concentration.
(§3) Following plating efficiencies were standardized for Soft Agar Assay: […]

MDAMB231 [2] = assay: In vitro antiproliferative assay (MTT assay), breast cancer cell line; assay type: cell-based; details: Homo sapiens, MDA-MB-231, 48 h, MTT assay, breast cancer MDAMB231, 48 hrs drug incubation
In short: (§4)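 MTT read-out after 48 h drug exposure; cells pre-incubated 24 h at 37 °C, 5% CO2. MTT 0.5 mg/ml, 4 h; crystals solubilized in DMSO. Data: log % viability vs log concentration.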

[3] = test system: Aldehyde dehydrogenase (ALDH); assay: Aldehyde Dehydrogenase (ALDH) assay, ELISA kit; assay type: cell-based; details: MDAMB231, 48 hrs
Text: Aldehyde dehydrogenases (ALDH) are a family of enzymes that catalyze the metabolism of exogenous and endogenous aldehydes, preventing the accumulation of potentially reactive and toxic aldehydes and their metabolites. In addition to their role in aldehyde metabolism, ALDH enzymes also play critical roles in other cellular processes such as cell proliferation, differentiation, and survival. ALDH also serves as a marker for certain stem cell populations including hematopoietic stem cells and certain cancer stem cells. ALDH concentration was determined by using ([…] Dx) ELISA kit by following protocol: • 1 Standards (50 μl)/sample (40 μl) were added to the respective wells, (except Blank). • 2. (10 μl) Antibody-Biotin conjugate was then added in each sample well (except Blank). • 3. (50 μl) of Horse Radish Peroxidase (HRP) Conjugate was then added to each well (except Blank). • 4. The plates were incubated for one hour at 37° C. in the incubator. • 5. Wash (4 times with wash buffer) and blot residual buffer by firmly tapping the plate on the absorbent paper. Wipe off any liquid from the bottom of the microtiter wells as any residue can interfere in the reading step. • 6. Add TMB substrate A (50 μl) and then TMB substrate B (50 μl) to each well including Blank as well. • 7. Incubate for 10 mins at 37° C. in dark. • 8. Add (50 μl) stop solution. Wells should turn from blue to yellow. • 9. Read absorbance at 450 nm. • 10 A X-Y graph of concentration vs optical density was plotted. ALDH concentration was calculated by substituting optical density values in the regression analysis equation.

MDAMB231 [4] = assay: Wound Healing Assay (WHA), breast cancer cell line; assay type: cell-based; details: IC10 conc. of compound
Protocol: (§5) Wound Healing Assay (WHA) determines the ability of cancer stem cells to heal the wound formed in a confluent monolayer.
(§6) Procedure: 0.35×10^6 cells were plated in each well of 6 Tissue Culture well plates. The plate was incubated for 48 hrs at 37° C., 5% CO2. […] IC10 conc. of the respective compound was added into each well. The plates were incubated at 37° C., 5% CO2 and the width of scratch was measured at various time intervals such as 6, 24 and 48 hours. Average of 3 distances were taken for each time point using IS camera Measure. A plot of average width of scratch in micrometer was plotted against the time interval after treatment.

PC3 [5] = assay: Wound Healing Assay (WHA), prostate cancer cell line; assay type: cell-based; details: IC10 conc. of compound
Protocol: as §5, §6

PC3 [6] = assay: Soft agar colony-formation assay, prostate cancer; assay type: cell-based; details: for anticancer activity in comparison with cisplatin, soft agar, prostate cancer cell line: FIG. 52, PC3; for IC50: Homo sapiens, PC-3, 168 h, Soft Agar Assay, 1 week, Alamar Blue
Protocol: as §1, §2, §3

PC3 [7] = assay: In vitro sphere-forming assay (cancer stem cells), Prostosphere media; details: for 3D sphere count of PC3: Prostosphere media, 2000 cells/well, n = 6 ± S.D
Protocol: (§7) In Vitro Sphere-forming Assay: Sphere assay measures the ability of cancer stem cells (CSCs) to form spheres in specially designed serum-free medium.
Prostosphere Media Preparation (For 100 mL):1 g methyl cellulose autoclaved with magnetic stirrer, 100 mL plain media (Prostate Epithelial Basal Medium) was added and dissolved, under magnetic stirring. After complete dissolution, Insulin-40 μL, B27-2 mL, EGF-80 μL, Penstrep-1 ml was added.
(§8) Procedure—The cells were trypsinised and made into single-cell suspension by passing through cell strainers (100 μl and 40 μl, respectively), The cells were diluted at a concentration of 2000 cells/100 μL and suspended in either Mammosphere (for breast cell lines) or Prostosphere (for prostate cell lines). 100 μL of this suspension was added into each well of 96-well suspension plates and incubated at 37° C., 5% CO2 for 24 hrs. Appropriate concentrations of the drugs (2 μL) were added into respective wells with 100 μL of stem cell culture medium. Plates were incubated at 37° C., 50 CO2 for 72 hrs. After incubation, 2.5 μL of the respective drug concentration and 50 μL of stem cell culture medium were added into each well and the plates were further incubated at 37° C., 50% CO2 for 72 hrs. 3 μL of the respective drug concentration was added with 50 μL of stem cell culture medium again after incubation and plates were reincubated for 72 hrs at 37° C., 50 CO2. Number of primary spheres formed for each concentration were counted. The spheres were converted to 0 viability of spheres compared to untreated (Growth Control with DMSO, GCD).

PC3 [8] = assay: In vitro antiproliferative assay (MTT assay), prostate cancer cell line; assay type: cell-based; details: Homo sapiens, PC-3, 48 h, MTT assay, prostate cancer PC3, 48 hrs drug incubation
In short: as §4

MDAMB231 [9] = assay: In vitro sphere-forming assay (cancer stem cells), Mammosphere media; details: for 3D sphere count of MDAMB231: Mammosphere media, 2000 cells/well, n = 6 ± S.D
Protocol: as §7
Mammosphere Media Preparation (For 100 mL): 1 g methyl cellulose autoclaved with magnetic stirrer, 100 ml plain media (MEBM) was added and dissolved under magnetic stirring. After complete dissolution FGF-80 μL, EGF-40 μL, Penstrep-1 mL, Heparin-400 μL was added.
as §8

[10] = Homo sapiens, PC-3, read-out: % Viability of spheres (PC3)
[11] = Homo sapiens, MDA-MB-231, read-out: % Viability of spheres (MDAMB231)

SMILES: O=C1C(c2ccc3c(c2)OCO3)=CC(=O)c2c(OCCCCN3CCOCC3)cccc21 [Formula 2, 5-(4-morpholinobutoxy)-2-(benzo[d][1,3]dioxol-6-yl)naphthalene-1,4-dione]
anticancer activity in comparison with cisplatin, soft agar, breast cancer cell line (MDAMB231 [1]): higher anticancer activity in comparison with cisplatin
IC50 (MDAMB231 [1]): 2.08 µM
IC50 (MDAMB231 [2]): 0.566 µM
% inhibition of ALDH on Breast Cancer Cell line (MDAMB231) after 48 hrs [3]: 76.09%
% inhibition of Wound Healing for Breast Cancer Cell line (MDAMB231) after 48 hrs (MDAMB231 [4]): 53.69%
% inhibition of Wound Healing for Prostate Cancer Cell line (PC3) after 48 hrs (PC3 [5]): 45.25%
anticancer activity in comparison with cisplatin, soft agar, prostate cancer cell line (PC3 [6]): higher anticancer activity in comparison with cisplatin
IC50 (PC3 [6]): 2.65 µM
viability at 0.025 µM (PC3 [7]; [10]): 77%
viability at 0.25 µM (PC3 [7]; [10]): 65%
viability at 2.5 µM (PC3 [7]; [10]): 39%
viability at 25 µM (PC3 [7]; [10]): 21%
viability at 250 µM (PC3 [7]; [10]): 10%
3D sphere count of PC3 (PC3 [7]; drug 0.025 uM): 63(±4)
3D sphere count of PC3 (PC3 [7]; drug 0.25 uM): 53(±3)
3D sphere count of PC3 (PC3 [7]; drug 2.5 uM): 32(±4)
3D sphere count of PC3 (PC3 [7]; drug 25 uM): 17(±3)
3D sphere count of PC3 (PC3 [7]; drug 250 uM): 8(±2)
IC50 (PC3 [8]): 0.344 µM
viability at 0.025 µM (MDAMB231 [9]; [11]): 84%
viability at 0.25 µM (MDAMB231 [9]; [11]): 66%
viability at 2.5 µM (MDAMB231 [9]; [11]): 46%
viability at 25 µM (MDAMB231 [9]; [11]): 30%
viability at 250 µM (MDAMB231 [9]; [11]): 14%
3D sphere count of MDAMB231 (MDAMB231 [9]; drug 0.025 uM): 65(±5)
3D sphere count of MDAMB231 (MDAMB231 [9]; drug 0.25 uM): 51(±3)
3D sphere count of MDAMB231 (MDAMB231 [9]; drug 2.5 uM): 36(±3)
3D sphere count of MDAMB231 (MDAMB231 [9]; drug 25 uM): 23(±3)
3D sphere count of MDAMB231 (MDAMB231 [9]; drug 250 uM): 11(±3)

IC50 (MDAMB231 [1]): 0.353 µM
IC50 (MDAMB231 [2]): 0.951 µM
IC50 (PC3 [6]): 0.422 µM
IC50 (PC3 [8]): 1.68 µM
SMILES: COc1ccc(NC2=CC(=O)c3c(OCCN4CCOCC4)cccc3C2=O)cc1OC [Formula 40, 5-(2-morpholinoethoxy)-2-(3,4-dimethoxyphenylamino) naphthalene-1,4-dione]
anticancer activity in comparison with cisplatin, soft agar, breast cancer cell line (MDAMB231 [1]): higher anticancer activity in comparison with cisplatin
% inhibition of ALDH on Breast Cancer Cell line (MDAMB231) after 48 hrs [3]: 62.73%
% inhibition of Wound Healing for Breast Cancer Cell line (MDAMB231) after 48 hrs (MDAMB231 [4]): 45.84%
% inhibition of Wound Healing for Prostate Cancer Cell line (PC3) after 48 hrs (PC3 [5]): 48.56%
anticancer activity in comparison with cisplatin, soft agar, prostate cancer cell line (PC3 [6]): higher anticancer activity in comparison with cisplatin
viability at 0.0025 µM (PC3 [7]; [10]): 80%
viability at 0.025 µM (PC3 [7]; [10]): 65%
viability at 0.25 µM (PC3 [7]; [10]): 47%
viability at 2.5 µM (PC3 [7]; [10]): 34%
viability at 25 µM (PC3 [7]; [10]): 17%
3D sphere count of PC3 (PC3 [7]; drug 0.0025 uM): 70(±5)
3D sphere count of PC3 (PC3 [7]; drug 0.025 uM): 57(±3)
3D sphere count of PC3 (PC3 [7]; drug 0.25 uM): 41(±3)
3D sphere count of PC3 (PC3 [7]; drug 2.5 uM): 30(±3)
3D sphere count of PC3 (PC3 [7]; drug 25 uM): 15(±3)
viability at 0.0025 µM (MDAMB231 [9]; [11]): 78%
viability at 0.025 µM (MDAMB231 [9]; [11]): 56%
viability at 0.25 µM (MDAMB231 [9]; [11]): 41 ± 4%
viability at 2.5 µM (MDAMB231 [9]; [11]): 27%
viability at 25 µM (MDAMB231 [9]; [11]): 10%
3D sphere count of MDAMB231 (MDAMB231 [9]; drug 0.0025 uM): 60(±3)
3D sphere count of MDAMB231 (MDAMB231 [9]; drug 0.025 uM): 43(±3)
3D sphere count of MDAMB231 (MDAMB231 [9]; drug 0.25 uM): 32(±4)
3D sphere count of MDAMB231 (MDAMB231 [9]; drug 2.5 uM): 21(±3)
3D sphere count of MDAMB231 (MDAMB231 [9]; drug 25 uM): 8(±2)

IC50 (MDAMB231 [1]): 3.88 µM
IC50 (MDAMB231 [2]): 3.13 µM
IC50 (PC3 [6]): 3.27 µM
IC50 (PC3 [8]): 4.32 µM
SMILES: O=C1C(NC2CCCCC2)=CC(=O)c2c(OCCN3CCOCC3)cccc21 [Formula 52]
anticancer activity in comparison with cisplatin, soft agar, breast cancer cell line (MDAMB231 [1]): higher anticancer activity in comparison with cisplatin
% inhibition of ALDH on Breast Cancer Cell line (MDAMB231) after 48 hrs [3]: 74.69%
% inhibition of Wound Healing for Breast Cancer Cell line (MDAMB231) after 48 hrs (MDAMB231 [4]): 37.42%
% inhibition of Wound Healing for Prostate Cancer Cell line (PC3) after 48 hrs (PC3 [5]): 34.7%
anticancer activity in comparison with cisplatin, soft agar, prostate cancer cell line (PC3 [6]): higher anticancer activity in comparison with cisplatin
viability at 0.0025 µM (PC3 [7]; [10]): 87%
viability at 0.025 µM (PC3 [7]; [10]): 77%
viability at 0.25 µM (PC3 [7]; [10]): 62%
viability at 2.5 µM (PC3 [7]; [10]): 49%
viability at 25 µM (PC3 [7]; [10]): 30%
3D sphere count of PC3 (PC3 [7]; drug 0.0025 uM): 71(±3)
3D sphere count of PC3 (PC3 [7]; drug 0.025 uM): 63(±4)
3D sphere count of PC3 (PC3 [7]; drug 0.25 uM): 51(±3)
3D sphere count of PC3 (PC3 [7]; drug 2.5 uM): 40(±4)
3D sphere count of PC3 (PC3 [7]; drug 25 uM): 25(±3)
viability at 0.0025 µM (MDAMB231 [9]; [11]): 62%
viability at 0.025 µM (MDAMB231 [9]; [11]): 50%
viability at 0.25 µM (MDAMB231 [9]; [11]): 45%
viability at 2.5 µM (MDAMB231 [9]; [11]): 38%
viability at 25 µM (MDAMB231 [9]; [11]): 26%
3D sphere count of MDAMB231 (MDAMB231 [9]; drug 0.0025 uM): 69(±3)
3D sphere count of MDAMB231 (MDAMB231 [9]; drug 0.025 uM): 55(±7)
3D sphere count of MDAMB231 (MDAMB231 [9]; drug 0.25 uM): 43(±3)
3D sphere count of MDAMB231 (MDAMB231 [9]; drug 2.5 uM): 34(±4)
3D sphere count of MDAMB231 (MDAMB231 [9]; drug 25 uM): 24(±3)
